Measured values as given in PMC12593371, “Whole-Body Disposition and Metabolism of [^14C]-2,4,4′-Trichlorobiphenyl (PCB28) Following Lung Administration in Rats” (Environmental Science & Technology, 2025).

How the values were obtained:
[1] = Mass balance and whole-body tissue distribution of radioactivity after intratracheal [14C]-PCB28; type: in vivo, Male Sprague–Dawley rats; conditions: for contribution of adipose tissue to total radioactivity: 720 min; for share of the remaining radioactivity: 12 min
Description: Male Sprague–Dawley rats (8 weeks old) weighing 230–285 g (mean of 256 g) were used in this study (Envigo, Indianapolis, IN). Male rats were selected to maintain consistency with previous toxicokinetic investigations of lower-chlorinated PCBs, specifically the study on intratracheally instilled ^14C-labeled dichlorinated PCB11, which also utilized male rats. This approach facilitated direct comparison across studies and contributed to a more comprehensive toxicokinetic data set for LC-PCBs following inhalation exposure. A PCB toxicokinetic study being published separately investigated placental transfer and fetal uptake in pregnant females. All animals were handled in compliance with an approved Institutional Animal Care and Use Committee protocol (protocol#: 3091097 approved on 10/12/2023). Rats were pair-housed in a light and temperature-controlled environment with access to food and water ad libitum. After 1 week of acclimatization, rats were assigned to either a high-dose (HD) group (n = 9) or a low-dose (LD) group (n = 5) at random. Control rats (n = 3) were exposed to a single dose of unlabeled PCB28 (42 μg in 200 μL) and necropsied 50 min after exposure to establish background levels for radioactivity calculations in blank tissues. […] Therefore, animal numbers were customized between groups to most efficiently utilize the limited available ^14C-PCB28 stock in our lab.
(§1) Animals in the HD group were intratracheally (i.t.) administered 42 μg of a one-time single dose of [^14C]-PCB28 in 200 μL of vehicle, while animals in the LD group received 4.2 μg of [^14C]-PCB28 in 100 μL of vehicle. The i.t. route for dosing was selected due to the limited availability and extraordinary cost of the radiolabeled PCB28, and to avoid ^14C contamination of the inhalation exposure apparatus. All i.t. instillation was performed under light anesthesia (4% isoflurane via a precision vaporizer Fortec, Cyprane, Keighley, UK). Rats recovered from the anesthesia within 2 min while held within a cylindrical glass chamber (2 L), equipped with drainage ports to facilitate urine collection and a metallic screen to segregate urine from feces (as illustrated in Figure S1). Air was drawn from the chamber at 6.0 L/min through a cartridge containing XAD-2 polymeric resin (Amberlite, Millipore Sigma, Burlington, MA) to capture any exhaled [^14C]-PCB28. For the longer time points (720 and 1440 min), individual rats were placed in metabolic cages following a similar protocol for excreta and exhaled breath collection. After exposure, the inner walls of the chamber were rinsed separately with water, acetone, and hexane (25 – 45 mL) and wiped to measure radioactivity. Rat fur was also wiped and analyzed for radioactivity. The rats exposed to the HD were euthanized using isoflurane and exsanguination via cardiac puncture at 12, 25, 50, 100, 200, 400, 720, and 1440 min postexposure (n = 1 per time point except n = 2 for 200 min). Animals exposed to the LD were similarly necropsied at time points of 2, 12, 50, 200, and 720 min postexposure (n = 2). Euthanasia was consistently performed during the light cycle, except in the case of the 720 min time point, wherein euthanasia occurred outside the light cycle.
Serum and blood cells were separated. Two to six technical replicates were collected from 36 tissue types and digestive matter (diluted in ultrapure water) from 5 different GI tract locations. Muscle and adipose tissue samples were obtained from various locations. The collected tissue samples were placed in scintillation vials containing 1 mL of solvable cocktail and kept at 37 °C overnight for complete solubilization. To enable subsequent analyses, the solubilized tissue samples underwent a 2-h heating phase at 50 °C. For the bone, feces, and digestive matter, 1 mL of isopropyl alcohol was added. For samples displaying darker coloration, a controlled volume of 30% hydrogen peroxide (100 to 300 μL) was slowly added in increments to remove potential interference. […]

[2] = Fractionation of parent PCB28 and metabolites in serum, liver, adipose and kidney (liquid scintillation counting); type: in vivo, Male Sprague–Dawley rats; conditions: for peak concentration of parent compound in serum: 12 min
Method: as §1
Extractions of parent PCB28 and its hydroxylated, methyl sulfone, and conjugated metabolites in serum, liver, adipose, and kidney samples were conducted using our previous protocol. Individual extractable metabolites were separated using a series of liquid–liquid extractions, employing a graded array of solvents with increasing polarity to facilitate the partitioning of the analytes according to their inherent lipophilic characteristics (Figure S2). Subsequently, individual fractions were classified into respective categories, including the native PCB moiety, hydroxylated PCB (OH-PCB), methyl sulfonyl-PCB (MeSO2-PCB), conjugated metabolites, and unextractable components. Analytical recoveries were quantified for each extraction and separation step. Tissue samples (200–400 mg wet weight) were prepared for analysis in a two-step homogenization process using 2 mL of hexane/acetone solvent (50:50, vol/vol). The resultant solution was centrifuged, and then the pellet underwent two successive extractions with 1.5 mL of dichloromethane (DCM), chloroform/methanol (50:50 vol/vol), methanol/water (50:50 vol/vol), and water, respectively. […] The residual hydrophobic phase was quantified as native PCB28. The quantification of unlabeled PCB28, OH-PCBs (as MeO-PCB derivatives), and MeSO2–PCBs in standards spiked samples was performed on a gas chromatograph (Agilent 6890N) equipped with a ^63Ni μ-ECD detector and SLB-5MS capillary column (60 m × 0.25 mm I.D., 0.25 μm film thickness; Supelco, St Louis, MO). […]

## Clc1ccc(-c2ccc(Cl)cc2Cl)cc1 [PCB28, 2,4,4′-trichlorobiphenyl]
[1]; high dose
  contribution of adipose tissue to total radioactivity: 30%
  increase of adipose [14C] concentration throughout the entire time course: 6.5 fold
[1]; low dose
  contribution of adipose tissue to total radioactivity: 28%
  increase of adipose [14C] concentration throughout the entire time course: 21 fold
[1]; 24 h
  share of the retained radioactivity sequestered in skin and adipose tissue: 67–77%
  total radioactivity remaining within the body: 88–92%
[1]; 24 h study
  administered dose excreted via urine and feces: less than 4%
  retention in the body or apparent bioavailability using fecal excretion: 92%
[1]; blood
  reduction of quantified radioactivity between 12 and 50 min: 37–67%
[1]; by the end of the 24 h study period / at any time point
  total radioactivity excreted in the feces: no more than 4%
[1]; duodenum digestive matter, both doses
  time of peak concentration: 50 min
[1]; from fecal excretion, 24 h
  apparent bioavailability: up to 96%
[1]; high dose (42 μg i.t.)
  nominal recovered radioactivity of the administered dose in the collected tissues: 83 ± 5%
[1]; intratracheal dosing
  exhaled breath, share of the total recovered radioactivity: 0.07 ± 0.04%
[1]; intratracheal lung dosing
  pulmonary uptake: 99.9 ± 3.5%
[1]; kidney
  reduction of quantified radioactivity between 12 and 50 min: 36–69%
[1]; liver
  reduction of quantified radioactivity between 12 and 50 min: 41–58%
[1]; liver, high dose
  share of the remaining radioactivity: 16.8%
[1]; liver, low dose
  share of the remaining radioactivity: 20.6%
[1]; low dose (4.2 μg i.t.)
  nominal recovered radioactivity of the administered dose in the collected tissues: 74 ± 13%
[1]; lung
  reduction of quantified radioactivity between 12 and 50 min: 56–73%
[1]; muscle plus liver, high dose
  share of the remaining radioactivity: ~52.1%
[1]; muscle, high dose
  share of the remaining radioactivity: 35.3%
[1]; pulmonary regions, low dose
  share of the remaining radioactivity: 16.7%
[1]; serum, same time point
  more radioactivity retained in serum at the low dose than at the high dose: 92%
[1]; stomach matter
  time of peak radioactivity: 50 min
[2]; adipose tissue, high dose
  increase of parent PCB28 concentration over the entire study time course: 9 fold
[2]; adipose tissue, low dose
  increase of parent PCB28 concentration between 200 and 720 min: 3 fold
  increase of parent PCB28 concentration over the entire study time course: 36 fold
[2]; high dose
  peak concentration of parent compound in serum: 47 dpm/mg
[2]; low dose
  peak concentration of parent compound in serum: 7.6 dpm/mg
